According to patent US8710183B2, “Inhibitors of bacterial tyrosine kinase and uses thereof” (Centre National de la Recherche Scientifique (C.N.R.S.), priority 2008, dated 2014):
Where no end group is shown, it is not given here.

Legend:
BY-kinase A1B2 = experiment: Procedure 1: inhibition of A1B2 autokinase activity (radioactivity incorporated in A1B2); format: biochemical, Staphylococcus aureus; set-up: ActivitY (inhibition): concentration or dose not given beside the values; settings: for % of inhibition of A1B2 autokinase activity / Radioactivity incorporated in A1B2: A1B2 50 pmole
Method: 50 pmole of the purified BY-kinase (or the dephosphorylated BY-kinase) are incubated for 15 min to 1 hour in the presence of 50 pmole of the drug in a final volume of 20 microliters. The ratio BY-kinase/drug varies from 1/1 to 1/100. The reaction is performed in a buffer specific of each BY-kinase (pH condition, salt concentrations, etc.). The incubation is then continued for 30″ to 1 h in the presence of 5 microCurie of radioactive ATP (^32P or ^33P) labeled on g-P (specific activity 3000 Ci/mmole) and 50 microMolar non-radioactive ATP. The reaction is stopped by adding 5 microliter of gel-electrophoresis loading buffer 5 fold concentrate and heating 5 min at 100° C.
(§1) The procedure was applied for A1B2 [34] and CapO [20] Each Gene has been cloned in the pQE30 vector (Qiagen) to allow fusion of a histidines-tag fused to the N-terminal end of either A1B2 or CapO. This overproducing plasmid has been transformed in the Escherichia coli XL 1-blue strain. Cells have been incubated at 37° C. under shaking until A600 reached 0.5. IPTG was then added at a final concentration of 0.5 mM, and growth was continued for 3 h at 37° C. under shaking. Cells were harvested by centrifugation at 3000×g for 10 min, washed in buffer A (Tris-HCl 50 mM pH7.5, Nacl 200 mM, glycerol 10%, imidazole 10 mM) containing DNase I and RNase A at a final concentration of […] each, lysozyme 1 mg/ml, and protease inhibitors cocktail. Cells were disrupted by sonication. The resulting suspension was centrifuged at 4° C. for 30 min at 30,000×g. The supernatant was incubated with Ni-NTA matrix (Qiagen), suitable for purification of 6 histidines fusion proteins, for 30 min at 4° C. under gentle shaking. The protein-resin complex was packed into a column for washing and elution steps. The column was washed with buffer B (Tris-HCl 50 mM pH7.5, Nacl 200 mM, glycerol 10%, imidazole 20 mM). Protein elution was carried out with buffer C (Tris-HCl 50 mM pH7.5, NaCl 200 mM, glycerol 10%, imidazole 150 mM). Eluted fractions were collected, analyzed by SDS-PAGE. Appropriated fractions are pooled and dialyzed overnight against buffer D (Tris-HCl 50 mM, pH7.5, NaCl 100 mM, DTT 1 mM, MgCl2 1 mM, glycerol 20%) and used for inhibitory tests or stored at +4° C., −20° C., or −80° C.
According to procedure 1, 50 pmole of A1B2 were incubated with either, 0 pmole, 50 pmole, or 500 pmole, or 5 nmol of BYK001 for 15 min at 37° C. in a final volume of […]. Then, incubation was continued for 30″, or 1′, or 2′ or 5′ in the presence of […] of [g-^32P] ATP (specific activity 3000 Ci/mmole). The amount of radioactivity incorporated in A1B2 was determined by fluid scintillation counting after gel-electophoresis. The percentage of inhibition of A1B2 autokinase activity is expressed relatively to the radioactivity incorporated in A1B2 when incubated without BYK001.

[1] = tested on: BY-kinase A1B2 (substrate CapO); experiment: Procedure 2: inhibition of CapO phosphorylation by A1B2 (radioactivity incorporated in CapO); format: biochemical, Staphylococcus aureus; settings: A1B2 50 pmol, CapO 50 pmole
Method: The procedure 2 is based on procedure 1, except that 5 pmole to 100 pmole of the protein substrate are also added either in the same time as the drug or concomitant with the radioactive ATP and the non-radioactive ATP.
as §1
According to procedure 2, 50 pmol of A1B2 and 50 pmole of a substrate of A1B2, namely the protein CapO, were incubated with either 50 pmole, or 500 pmole, or 5 nmol of BYK001 for 15 min at 37° C. in a final volume of […]. Then, incubation was continued for 30″, or 1′, or 2′ or 5′ in the presence of […] of [g-^32P] ATP (specific activity 3000 Ci/mmole). The amount of radioactivity incorporated in CapO was determined by fluid scintillation counting after gel-electophoresis. The percentage of inhibition of CapO phosphorylation by A1B2 is expressed relatively to CapO radioactivity when incubation was performed without BYK001.

[2] = BYK001 50 pmole, incubation time 0.5 min
[3] = BYK001 50 pmole, incubation time 1 min
[4] = BYK001 50 pmole, incubation time 2 min
[5] = BYK001 50 pmole, incubation time 5 min
[6] = BYK001 500 pmole, incubation time 0.5 min
[7] = BYK001 500 pmole, incubation time 1 min
[8] = BYK001 500 pmole, incubation time 2 min
[9] = BYK001 500 pmole, incubation time 5 min
[10] = BYK001 5000 pmole, incubation time 0.5 min
[11] = BYK001 5000 pmole, incubation time 1 min
[12] = BYK001 5000 pmole, incubation time 2 min
[13] = BYK001 5000 pmole, incubation time 5 min

BYK001: peptide with adenine PNA on lysine side chain: S-A-S-Y-Y-A-Y-K(PNA)-G-T-D; native S. aureus tyrosine cluster sequence (SASYYAYK(adenine PNA)GTD)
% of inhibition of A1B2 autokinase activity (BY-kinase A1B2; [2]): 17.54% | Radioactivity incorporated in A1B2 (BY-kinase A1B2; [2]): 29233 cpm | % of inhibition of A1B2 autokinase activity (BY-kinase A1B2; [3]): 16.10% | Radioactivity incorporated in A1B2 (BY-kinase A1B2; [3]): 71683 cpm | % of inhibition of A1B2 autokinase activity (BY-kinase A1B2; [4]): 16.63% | Radioactivity incorporated in A1B2 (BY-kinase A1B2; [4]): 132537 cpm | % of inhibition of A1B2 autokinase activity (BY-kinase A1B2; [5]): 14.68% | Radioactivity incorporated in A1B2 (BY-kinase A1B2; [5]): 325711 cpm | % of inhibition of A1B2 autokinase activity (BY-kinase A1B2; [6]): 13.31% | Radioactivity incorporated in A1B2 (BY-kinase A1B2; [6]): 30734 cpm | % of inhibition of A1B2 autokinase activity (BY-kinase A1B2; [7]): 15.17% | Radioactivity incorporated in A1B2 (BY-kinase A1B2; [7]): 72475 cpm | % of inhibition of A1B2 autokinase activity (BY-kinase A1B2; [8]): 15.95% | Radioactivity incorporated in A1B2 (BY-kinase A1B2; [8]): 133624 cpm | % of inhibition of A1B2 autokinase activity (BY-kinase A1B2; [9]): 14.87% | Radioactivity incorporated in A1B2 (BY-kinase A1B2; [9]): 324983 cpm | % of inhibition of A1B2 autokinase activity (BY-kinase A1B2; [10]): 15.67% | Radioactivity incorporated in A1B2 (BY-kinase A1B2; [10]): 29899 cpm | % of inhibition of A1B2 autokinase activity (BY-kinase A1B2; [11]): 15.11% | Radioactivity incorporated in A1B2 (BY-kinase A1B2; [11]): 72528 cpm | % of inhibition of A1B2 autokinase activity (BY-kinase A1B2; [12]): 11.30% | Radioactivity incorporated in A1B2 (BY-kinase A1B2; [12]): 141005 cpm | % of inhibition of A1B2 autokinase activity (BY-kinase A1B2; [13]): 15.20% | Radioactivity incorporated in A1B2 (BY-kinase A1B2; [13]): 323749 cpm | ActivitY (inhibition) (BY-kinase A1B2; Table 5, inhibition of BY-kinase A1B2): 15.00% | inhibitory effect on BY-kinase A1B2 (BY-kinase A1B2; conclusion from procedures 1 and 2): inhibitory effect | inhibition (BY-kinase A1B2; summary): around 15% | % of inhibition of CapO phosphorylation by A1B2 [1, 2]: 10.05% | Radioactivity incorporated in CapO [1, 2]: 3555 cpm | % of inhibition of CapO phosphorylation by A1B2 [1, 3]: 9.33% | Radioactivity incorporated in CapO [1, 3]: 6388 cpm | % of inhibition of CapO phosphorylation by A1B2 [1, 4]: 10.69% | Radioactivity incorporated in CapO [1, 4]: 15498 cpm | % of inhibition of CapO phosphorylation by A1B2 [1, 5]: 8.11% | Radioactivity incorporated in CapO [1, 5]: 31901 cpm | % of inhibition of CapO phosphorylation by A1B2 [1, 6]: 11.51% | Radioactivity incorporated in CapO [1, 6]: 3497 cpm | % of inhibition of CapO phosphorylation by A1B2 [1, 7]: 10.55% | Radioactivity incorporated in CapO [1, 7]: 6302 cpm | % of inhibition of CapO phosphorylation by A1B2 [1, 8]: 10.40% | Radioactivity incorporated in CapO [1, 8]: 15549 cpm | % of inhibition of CapO phosphorylation by A1B2 [1, 9]: 9.99% | Radioactivity incorporated in CapO [1, 9]: 31251 cpm | % of inhibition of CapO phosphorylation by A1B2 [1, 10]: 11.11% | Radioactivity incorporated in CapO [1, 10]: 3513 cpm | % of inhibition of CapO phosphorylation by A1B2 [1, 11]: 10.36% | Radioactivity incorporated in CapO [1, 11]: 6315 cpm | % of inhibition of CapO phosphorylation by A1B2 [1, 12]: 10.85% | Radioactivity incorporated in CapO [1, 12]: 15471 cpm | % of inhibition of CapO phosphorylation by A1B2 [1, 13]: 10.78% | Radioactivity incorporated in CapO [1, 13]: 30974 cpm
